Test results taken from PubChem BioAssay AID1224915.

Tested on: MDA-MB-231 antiproliferation
Experiment: PubChem AID 1224915

EC50: 9 nM
SMILES: COc1cc(-c2nn(CCN3CCC(N(C)C)CC3)c3ncnc(N)c23)ccc1NC(=O)OC(C)(C)C
